Measured values taken from patent publication US20190367558A1, “ANTIBODY/DRUG CONJUGATES AND METHODS OF USE” (ESPERANCE PHARMACEUTICALS, INC., priority 2012, published 2019).

Assays:
Format in all cases: cell-based, human
[1] = test system: Daudi (CD20 positive Non-Hodgkin's lymphoma cells); assay: Membrane integrity, Cytotox Glo luminometric assay (Examples 12, 16, 19, 20, 22); details: 4 h, CHO expressed IgG2 ADCs, Example 22
Method: (§1) Naked antibody anti-CD20-IgG1-Phor18 were chemically conjugated (MS4A and AT80), Mw app.158,000 g/mol at a concentrations of 0.34 mg/ml (MS4A-Phor18) and 0.76 mg/ml (AT-80-Phor18). Cell lines were obtained at the American Type Cell Collection (Mannassas, Va.). Human Non-Hodgkin's lymphoma cells Daudi (CD20 positive, passage number p2), Raji (CD20 positive p 2) and human leukemia cell line U937 (CD20 negative, p 10) were seeded at a density of 3,000 cells per well in opaque plates in heat inactivated full medium. After 24 hours cells were replenished with fresh media (75 μl) and incubated with 25 μl of a 4× serial dilution of MS4A1-Phor18 and AT80-Phor18 of 0.001, 0.01, 0.1, 1, 10, 100 and 500 nM (N=6). Cells incubated for 2-5 hours were assayed for membrane integrity using a luminometric assay kit (Promega, Madison, Wis., Cytotox Glo G9292 lot #301329). Cell viability was determined was determined after 24, and 48 hours using a luminescent assay kit (Promega, Madison, Wis., Cell Titer Glo, G 7572, lot 30068102).
(§2) The concentration of each naked antibody fragment and ADC was determined according to Bradford. Naked antibody scFv Mw 27,088 g/mol at a concentration of 0.3 mg/ml, minibody Mw 78,988 g/mol, 0.231 mg/ml; Phor 18 conjugated antibodies were scFv-Phor18 (Mw 29,349 g/mol, 0.9 mg/ml) and minibody-Phor18 (Mw 93,515, 0.48 mg/ml). Cell lines were obtained at the American Type Cell Collection (Mannassas, Va.). Human Non-Hodgkin's lymphoma cells Daudi (CD20 positive, passage number p8) and human leukemia cell line U937 (CD20 negative, p 16) were seeded at a density of 2,000 cells per well in opaque plates in heat inactivated full medium. After 24 hours cells were replenished with fresh media (75 μl) and incubated with 25 μl of a 4× serial dilution of scFv-Phor18 and minibody-Phor18 ADC and naked antibody fragment (scFv and minibody) prepared in cell culture media were added at concentrations of 0.0001, 0.001, 0.01, 0.1, 1, 10, 100, 200, and 500 nM (N=6). Cells incubated for 4 hours were assayed for membrane integrity using a luminometric assay kit (Promega, Madison, Wis., Cytotox Glo G9292 lot #301329). Cell viability was determined was determined after 24, 48 and 72 hours using a luminescent assay kit (Promega, Madison, Wis., Cell Titer Glo, G 7572, lot 30062102).
(§3) Controls for 100% cell viability (culture media) and 100% cell death (0.1% Triton X 100) incubated under the same conditions.
(§4) Data were processed and analyzed to obtain IC50 values using Graph Pad Prizm version 5.00 for Windows, GraphPad Software, San Diego Calif. USA, www-graphpad-com (Graph Pad Prizm, Inc). Statistical analysis for significance was determined by a two-tailed Student's T-test. Each test was conducted using 2 plates with 2-3 wells each to achieve an N of 4-6 data points per time point.
(§5) The concentration of each naked antibody fragment and ADC was determined spectrophotometrically (OD280). Naked antibody scFv-Fc Mw 52,562 g/mol at a concentration of 1.1 mg/ml, Phor 18 conjugated antibodies were Phor18-VL-scFvFc (Mw 54,685 g/mol, 1.0 mg/ml), scFv-Fc-CH3-Phor18 (Mw 54,685 g/mol, 0.8 mg/ml). Human Non-Hodgkin's lymphoma cells Daudi (CD20 positive, passage number p7) and human leukemia cell line U937 (CD20 negative, p 6) were seeded at a density of 2,000 cells per well in opaque plates in heat inactivated full medium using cell dissociation buffer. After 24 hours cells were replenished with fresh media (75 μl) and incubated and incubated with 25 μl of a 4× serial dilution of each ADC and naked antibody prepared in cell culture media were added at concentrations of 0.01, 0.1, 1, 10, 100, 200 and 500 nM for scFvFc, Phor18-VL-scFvFc and scFv-Fc-CH3-Phor18.
(§6) Cells incubated for 4 hours were assayed for membrane integrity using a luminometric assay kit (Promega, Madison, Wis., Cytotox Glo G9292 lot #26229601). Cell viability was determined was determined after 24 hours using a luminescent assay kit (Promega, Madison, Wis., Cell Titer Glo, G 7572, lot 30731602). […]

[2] = test system: Daudi (CD20 positive Non-Hodgkin's lymphoma cells); assay: Cell viability, Cell Titer Glo luminescent assay (Examples 12, 16, 19, 20, 22); details: CHO expressed IgG2 ADCs, Example 22
Method: as §1, §2, §3, §4, §5, §6

[3] = test system: U937 (CD20 negative leukemia cell line); assay: Membrane integrity, Cytotox Glo luminometric assay (Examples 19, 20, 22); details: CHO expressed IgG2 ADCs, Example 22
Method: as §5, with “After 24 hours cells were replenished with fresh media (75 μl) and incubated and incubated with 25 μl of a 4× serial dilution of each ADC and naked antibody prepared in cell culture media were added at concentrations of 0.01, 0.1, 1, 10, 100, 200 and 500 nM for scFvFc, Phor18-VL-scFvFc and scFv-Fc-CH3-Phor18.” left out
as §6
as §6, with “24, and 48” for “24”, “31386501).” for “30731602).”

[4] = test system: U937 (CD20 negative leukemia cell line); assay: Cell viability, Cell Titer Glo luminescent assay (Examples 12, 16, 19, 20, 22); details: CHO expressed IgG2 ADCs, Example 22
Method: as §1, §2, §5
Cells incubated for 4 hours were assayed for membrane integrity using a luminometric assay kit (Promega, Madison, Wis., Cytotox Glo G9292 lot #26229601). Cell viability was determined was determined after 24 hours using a luminescent assay kit (Promega, Madison, Wis., Cell Titer Glo, G 7572, lot 30731602). Controls for 100% cell viability (culture media) and 100% cell death (0.1% Triton X 100) incubated under the same conditions.
Human Non-Hodgkin's lymphoma cells Daudi (CD20 positive, passage number p3) and human leukemia cell line U937 (CD20 negative, p 12) were seeded at a density of 2,000 cells per well in opaque plates in heat inactivated full medium using cell dissociation buffer. […]

IgG2: naked anti-CD20 IgG2 with Rituxan CDRs, CHO cells [reference compound]
Not toxic: IC50, Daudi 4 h (Membrane integrity) [1] | IC50, Daudi 24 h ([2]; 24 h) | IC50, Daudi 48 h ([2]; 48 h) | IC50, U937 4 h (Membrane integrity) [3] | IC50, U937 24 h ([4]; U937, 24 h) | IC50, U937 48 h ([4]; U937, 48 h)
